Assays:
Gerbillinae = experiment: Compound was evaluated for gerbil colon contraction relative to PGF2-alpha; type: functional
Cricetinae gen. sp. = experiment: Compound was evaluated for uterine contraction relative to PGF2-alpha in hamsters; type: functional, hamster

| SMILES | Potency (Gerbillinae) | Potency (Cricetinae gen. sp.) |
| --- | --- | --- |
| CCCCC[C@H](O)CC[C@@]1(F)[C@H](O)C[C@H](O)[C@@H]1C/C=C\CCCC(=O)OC | 0.004 | 0.016 |
| CCCCC[C@@H](O)CC[C@@]1(F)[C@H](O)C[C@H](O)[C@@H]1C/C=C\CCCC(=O)OC | 0.001 | 0.005 |
| CCCCC[C@H](O)CC[C@@H]1[C@@H](C/C=C\CCCC(=O)OC)[C@@H](O)C[C@H]1O | 0.11 | 0.95 |
| CCCCC[C@H](O)/C=C/[C@@]1(F)[C@H](O)C[C@H](O)[C@@H]1C/C=C\CCCC(=O)OC | 0.001 | 0.28 |
| CCCCC[C@@H](O)/C=C/[C@@]1(F)[C@H](O)C[C@H](O)[C@@H]1C/C=C\CCCC(=O)OC | 0.011 | 0.022 |
| CCCCC[C@H](O)/C=C/[C@@H]1[C@@H](C/C=C\CCCC(=O)O)[C@@H](O)C[C@H]1O [DINOPROST] | 1 | 1 |

Reference: ChEMBL document CHEMBL1121920, “Synthesis and biological evaluation of the methyl esters of (+)-12-fluoro-13,14-dihydroprostaglandin F2alpha and (+)-15-epi-12-fluoro-13,14-dihydroprostaglandin F2alpha” (1981)
